Results as given in patent US20240208940A1, “SMALL-MOLECULE INHIBITORS FOR BETA-CATENIN/BCELL LYMPHOMA 9 PROTEIN-PROTEIN INTERACTION” (H. LEE MOFFITT CANCER CENTER AND RESEARCH INSTITUTE, INC., priority 2021, published 2024).
Structures can show the parent of a compound that is named as a salt.

Key:
full-length β-catenin = full-length β-catenin (Homo sapiens (Human), UniProt P35222); assay: Streptavidin protein pull-down from SW480 cell lysates; assay type: binding; details: 1 μM
Procedure: Pull-Down Experiments. Colorectal cancer SW480 cells (70-80% confluency) in T75 flask were lysed first in 1 mL buffer A containing 50 mM Tris (pH 7.4), 150 mM NaCl, 1% Nonidet P-40, 2 mM EDTA, and protease inhibitors. Cell debris was removed by centrifugation at 10,000 g for 20 min at 4° C. To 500 μL SW480 cell lysates was added 1 or 10 μM Biotin-36 and the mixture was incubated at 4° C. for 3 h. Then, 25 μL Streptavidin Sepharose beads (5-1638, Sigma) were added to the lysate mixture and rotated at 4° C. for 2 h. The lysate mixture was centrifuged at 4000 rpm for 2 min at 4° C. The beads were washed with buffer B (20 mM Tris pH 7.4, 150 mM NaCl, 0.1% NP-40) for 4 times. The beads were resuspended in 60 μL of 2×SDS sample buffer. After boiling, the samples were loaded onto 8% SDS polyacrylamide gel for electrophoretic analysis. Separated proteins were transferred onto nitrocellulose membranes for immunoblot analysis. The antibody against β-catenin (610153, BD Biosciences) were incubated with the membranes. IRDye 680LT goat anti-mouse IgG (827-11080, LiCOR) was used as the secondary antibody. The images were detected by the Odyssey Infrared Imaging System (LiCOR). Experiments were performed in duplicate.

β-catenin/BCL9 PPI = β-catenin/BCL9 PPI (Homo sapiens (Human), UniProt P35222); assay: AlphaScreen competitive inhibition assay of β-catenin/BCL9 PPI; assay type: binding; details: mean ± standard deviation (n = 3); for Ki: derived from IC50, read-out: Ki ± SD
Procedure: AlphaScreen Assays of β-Catenin and BCL9 Interaction. Experiments were performed in white opaque 384-well plates from PerkinElmer (Waltham, MA), and the samples were read on a Biotek Synergy 2 plate reader (Winooski, VT) with excitation at 680 nm and emission at 570 nm. The standard AlphaScreen protocol was used with a sensitivity setting of 200. All dilutions were made in 1× assay buffer containing 25 mM Hepes (pH 7.4), 100 mM NaCl, 0.01% Triton X-100 and 0.1% BSA to minimize nonspecific interactions. For the competitive inhibition assays of β-catenin/BCL9 PPI, the negative control (equivalent to 0% inhibition) refers to 5.0 nM biotinylated BCL9, 50 nM His6-tagged β-catenin, and 10 μg/mL donor and acceptor beads in a final volume of 25 μL assay buffer, but no tested inhibitor present. The positive control (equivalent to 100% inhibition) refers to 5.0 nM biotinylated BCL9 and 10 μg/mL donor and acceptor beads in a final volume of 25 μL assay buffer.
For the β-catenin/BCL9 assay, 5 nM biotinylated BCL9 and 50 nM His6-tagged β-catenin were incubated in assay buffer for 30 min. Different concentrations of the tested inhibitor were added and incubated in 20 μL assay buffer for another 1 h. All of the assay plates were covered and gently mixed on an orbital shaker. The donor and acceptor beads were then added to the plates to a final concentration of 10 μg/mL in 25 μL assay buffer. The mixture was incubated for 1 h before detection. The IC50 value was determined by nonlinear least-square analysis of GraphPad Prism 8.0. The Ki values were derived from the IC50 values using a method reported by Wang and coworkers.^65 The equation used is Ki=[I]50/([L]50/Kd+[P]0/Kd+1) (Where [I]50 denotes the concentration of the free inhibitor at 50% inhibition, [L]50 is the concentration of the free labeled ligand at 50% inhibition, [P]0 is the concentration of the free protein at 0% inhibition, and Kd is the dissociation constant of the protein-ligand complex). All of the experiments were performed in triplicate and carried out in the presence of 1% DMSO for small-molecule inhibitors. Each compound was assayed at least by three independent experiments. The results were expressed as mean±standard deviation.

Chain of β-catenin/BCL9 PPI (P35222 whole entry): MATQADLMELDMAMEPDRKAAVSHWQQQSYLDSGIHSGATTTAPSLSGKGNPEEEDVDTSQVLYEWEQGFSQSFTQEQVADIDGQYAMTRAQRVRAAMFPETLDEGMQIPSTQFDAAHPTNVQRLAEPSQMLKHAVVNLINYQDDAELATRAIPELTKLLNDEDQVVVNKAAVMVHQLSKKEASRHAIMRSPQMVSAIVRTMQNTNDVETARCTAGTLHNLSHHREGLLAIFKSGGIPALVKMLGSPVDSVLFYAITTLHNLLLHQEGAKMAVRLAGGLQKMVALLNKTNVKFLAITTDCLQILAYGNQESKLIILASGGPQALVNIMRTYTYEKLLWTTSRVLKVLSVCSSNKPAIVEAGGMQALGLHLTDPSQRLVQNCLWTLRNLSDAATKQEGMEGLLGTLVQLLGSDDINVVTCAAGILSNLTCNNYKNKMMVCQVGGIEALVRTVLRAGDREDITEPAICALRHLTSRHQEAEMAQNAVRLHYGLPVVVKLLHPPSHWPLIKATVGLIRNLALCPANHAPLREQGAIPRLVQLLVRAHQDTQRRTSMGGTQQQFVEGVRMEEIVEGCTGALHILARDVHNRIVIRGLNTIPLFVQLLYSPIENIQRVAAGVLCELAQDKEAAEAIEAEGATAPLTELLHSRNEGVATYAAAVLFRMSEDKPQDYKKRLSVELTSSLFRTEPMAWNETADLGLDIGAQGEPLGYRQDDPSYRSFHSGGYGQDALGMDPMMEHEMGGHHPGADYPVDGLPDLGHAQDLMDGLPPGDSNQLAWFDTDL
Chain of full-length β-catenin (P35222 whole entry): as above

SMILES | binding with β-catenin (pull-down, Western blot) (full-length β-catenin) | Ki (β-catenin/BCL9 PPI) [µM] | IC50 (β-catenin/BCL9 PPI) [µM]
CC(C)(C)C1CCC(c2cc(C(=O)N3CCC(Oc4cc(N5CCNCC5)ccc4C#N)CC3)ccc2O[C@@H]2CNC[C@H]2OCCOCCOCCNC(=O)CCCC[C@@H]2SCC3NC(=O)NC32)CC1.O=C(O)C(F)(F)F.O=C(O)C(F)(F)F (relative stereo) [Biotin-37, trans-N-(2-(2-(2-((4-(2-(cis- and trans-4-(tert-butyl)cyclohexyl)-4-(4-(2-cyano-5-(piperazin-1-yl)phenoxy)piperidine-1-carbonyl)phenoxy)pyrrolidin-3-yl)oxy)ethoxy)ethoxy)ethyl)-5-((4S)-2-oxohexahydro-1H-thieno[3,4-d]imidazol-4-yl)pentanamide ditrifluoroacetic acid] | effectively bound with full-length β-catenin | – | –
CC(C)(C)C1CCC(c2cc(C(=O)N3CCC(Oc4cc(N5CCNCC5)ccc4C(N)=O)CC3)ccc2O[C@H]2CCNC2)CC1 (stereo in doubt) [Compound 41, cis- and trans-(S)-2-((1-(3-(4-(tert-butyl)cyclohexyl)-4-(pyrrolidin-3-yloxy)benzoyl)piperidin-4-yl)oxy)-4-(piperazin-1-yl)benzamide dihydrochloride] | – | ≤ 20 | ≤ 20
O=C(c1ccc(O[C@H]2CCNC2)c(-c2ccccc2)c1)N1CCC(Oc2cc(F)cc(N3CCNCC3)c2)CC1 [Compound 8, (S)-(4-(3-fluoro-5-(piperazin-1-yl)phenoxy)piperidin-1-yl)(6-(pyrrolidin-3-yloxy)-[1,1′-biphenyl]-3-yl)methanone dihydrochloride] | – | ≤ 50 | ≤ 50
CC(C)(C)C1CCC(c2cc(C(=O)N3CCC(Oc4cccc(N5CCNCC5)c4)CC3)ccc2O[C@H]2CCNC2)CC1 (stereo in doubt) [Compound 38, cis and trans-(S)-(3-(4-(tert-butyl)cyclohexyl)-4-(pyrrolidin-3-yloxy)phenyl)(4-(3-(piperazin-1-yl)phenoxy)piperidin-1-yl)methanone dihydrochloride] | – | ≤ 20 | ≤ 20
CNC(=O)c1ccc(N2CCNCC2)cc1OC1CCN(C(=O)c2ccc(O[C@H]3CCNC3)c(C3CCC(C(C)(C)C)CC3)c2)CC1 (stereo in doubt) [Compound 42, cis- and trans-(S)-2-((1-(3-(4-(tert-butyl)cyclohexyl)-4-(pyrrolidin-3-yloxy)benzoyl)piperidin-4-yl)oxy)-N-methyl-4-(piperazin-1-yl)benzamide dihydrochloride] | – | ≤ 50 | ≤ 50
CC(C)(C)C1CCC(c2cc(C(=O)N3CCC(Oc4cc(N5CCNCC5)cc(C(F)(F)F)c4)CC3)ccc2O[C@H]2CCNC2)CC1 (stereo in doubt) [Compound 31, cis- and trans-(S)-(3-(4-(tert-butyl)cyclohexyl)-4-(pyrrolidin-3-yloxy)phenyl)(4-(3-(piperazin-1-yl)-5-(trifluoromethyl)phenoxy)piperidin-1-yl)methanone dihydrochloride] | – | < 5 | ≤ 5
O=C(c1ccc(O[C@H]2CCNC2)c(-c2ccc3[nH]ncc3c2)c1)N1CCC(Oc2cc(F)cc(N3CCNCC3)c2)CC1 [Compound 14, (S)-(3-(1H-indazol-5-yl)-4-(pyrrolidin-3-yloxy)phenyl)(4-(3-fluoro-5-(piperazin-1-yl)phenoxy)piperidin-1-yl)methanone dihydrochloride] | – | ≤ 10 | ≤ 10
O=C(c1ccc(O[C@H]2CCNC2)c(-c2cn[nH]c2)c1)N1CCC(Oc2cc(F)cc(N3CCNCC3)c2)CC1 [Compound 17, (S)-(3-(1H-pyrazol-4-yl)-4-(pyrrolidin-3-yloxy)phenyl)(4-(3-fluoro-5-(piperazin-1-yl)phenoxy)piperidin-1-yl)methanone dihydrochloride] | – | ≤ 2 | ≤ 2
CC(C)(C)C(=O)N1CCC(c2cc(C(=O)N3CCC(Oc4cc(F)cc(N5CCNCC5)c4)CC3)ccc2O[C@H]2CCNC2)CC1 [Compound 24, (S)-1-(4-(5-(4-(3-fluoro-5-(piperazin-1-yl)phenoxy)piperidine-1-carbonyl)-2-(pyrrolidin-3-yloxy)phenyl)piperidin-1-yl)-2,2-dimethylpropan-1-one dihydrochloride] | – | ~84 | ~100
CC(O)C(=O)N1CCC(c2cc(C(=O)N3CCC(Oc4cc(F)cc(N5CCNCC5)c4)CC3)ccc2O[C@H]2CCNC2)CC1 (stereo partly drawn) [Compound 23, 1-(4-(5-(4-(3-fluoro-5-(piperazin-1-yl)phenoxy)piperidine-1-carbonyl)-2-(((S)-pyrrolidin-3-yl)oxy)phenyl)piperidin-1-yl)-2-hydroxypropan-1-one dihydrochloride] | – | ≤ 50 | ≤ 50
CC(C)(C)C1CCC(c2cc(C(=O)N3CCC(Oc4cc(F)cc(N5CCNCC5)c4)CC3)ccc2O[C@H]2CCNC2)CC1 (stereo in doubt) [Compound 19, cis- and trans-(S)-(3-(4-(tert-butyl)cyclohexyl)-4-(pyrrolidin-3-yloxy)phenyl)(4-(3-fluoro-5-(piperazin-1-yl)phenoxy)piperidin-1-yl)methanone dihydrochloride] | – | ≤ 5 | ≤ 5
O=C(c1ccc(O[C@H]2CCNC2)c(C2CCCCC2)c1)N1CCC(Oc2cc(F)cc(N3CC4(CCNCC4)C3)c2)CC1 [Compound 2, (S)-(3-cyclohexyl-4-(pyrrolidin-3-yloxy)phenyl)(4-(3-fluoro-5-(2,7-diazaspiro[3.5]nonan-2-yl)phenoxy)piperidin-1-yl)methanone ditrifluoroacetic acid] | – | > 84 | > 100
Cn1cc(-c2cc(C(=O)N3CCC(Oc4cc(F)cc(N5CCNCC5)c4)CC3)ccc2O[C@H]2CCNC2)cn1 [Compound 13, (S)-(4-(3-fluoro-5-(piperazin-1-yl)phenoxy)piperidin-1-yl)(3-(1-methyl-1H-pyrazol-4-yl)-4-(pyrrolidin-3-yloxy)phenyl)methanone dihydrochloride] | – | ≤ 10 | ≤ 10
O=C(c1ccc(O[C@H]2CCNC2)c(N2CCCCC2)c1)N1CCC(Oc2cc(F)cc(N3CCNCC3)c2)CC1 [Compound 25, (S)-(4-(3-fluoro-5-(piperazin-1-yl)phenoxy)piperidin-1-yl)(3-(piperidin-1-yl)-4-(pyrrolidin-3-yloxy)phenyl)methanone dihydrochloride] | – | ≤ 60 | ≤ 60
O=C(c1ccc(O[C@H]2CCNC2)c(-c2ccc3ccccc3c2)c1)N1CCC(Oc2cc(F)cc(N3CCNCC3)c2)CC1 [Compound 12, (S)-(4-(3-fluoro-5-(piperazin-1-yl)phenoxy)piperidin-1-yl)(3-(naphthalen-2-yl)-4-(pyrrolidin-3-yloxy)phenyl)methanone dihydrochloride] | – | ≤ 5 | ≤ 5
